# Patent US12539292B2, “BRM targeting compounds and associated methods of use” (Arvinas Operations, Inc., priority 2018, dated 2026)
# Read-outs that look alike come from different tables or passages of the source.
# Molecular target: T1, BRM (Homo sapiens, UniProt P51531)
# T1 construct: In-Cell Western Screen of BRM Degradation in SW1573 Cells; endogenous in cells; host or cells: SW1573
# Assay: In-cell Western screen of BRM degradation in SW1573 cells (Dmax and DC50)
# Format: cell-based
# How it was run: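 BRM levels were read by LI-COR in-cell Western after two-channel (800/680 nm) immunostaining of fixed, Triton-permeabilised SW1573 cells.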
# [1] = BRM degradation, SW1573 cells, Table 2D
# [2] = BRM degradation, SW1573 cells, Table 2D, read-out: *DC50
# T1 sequence (P51531 whole entry): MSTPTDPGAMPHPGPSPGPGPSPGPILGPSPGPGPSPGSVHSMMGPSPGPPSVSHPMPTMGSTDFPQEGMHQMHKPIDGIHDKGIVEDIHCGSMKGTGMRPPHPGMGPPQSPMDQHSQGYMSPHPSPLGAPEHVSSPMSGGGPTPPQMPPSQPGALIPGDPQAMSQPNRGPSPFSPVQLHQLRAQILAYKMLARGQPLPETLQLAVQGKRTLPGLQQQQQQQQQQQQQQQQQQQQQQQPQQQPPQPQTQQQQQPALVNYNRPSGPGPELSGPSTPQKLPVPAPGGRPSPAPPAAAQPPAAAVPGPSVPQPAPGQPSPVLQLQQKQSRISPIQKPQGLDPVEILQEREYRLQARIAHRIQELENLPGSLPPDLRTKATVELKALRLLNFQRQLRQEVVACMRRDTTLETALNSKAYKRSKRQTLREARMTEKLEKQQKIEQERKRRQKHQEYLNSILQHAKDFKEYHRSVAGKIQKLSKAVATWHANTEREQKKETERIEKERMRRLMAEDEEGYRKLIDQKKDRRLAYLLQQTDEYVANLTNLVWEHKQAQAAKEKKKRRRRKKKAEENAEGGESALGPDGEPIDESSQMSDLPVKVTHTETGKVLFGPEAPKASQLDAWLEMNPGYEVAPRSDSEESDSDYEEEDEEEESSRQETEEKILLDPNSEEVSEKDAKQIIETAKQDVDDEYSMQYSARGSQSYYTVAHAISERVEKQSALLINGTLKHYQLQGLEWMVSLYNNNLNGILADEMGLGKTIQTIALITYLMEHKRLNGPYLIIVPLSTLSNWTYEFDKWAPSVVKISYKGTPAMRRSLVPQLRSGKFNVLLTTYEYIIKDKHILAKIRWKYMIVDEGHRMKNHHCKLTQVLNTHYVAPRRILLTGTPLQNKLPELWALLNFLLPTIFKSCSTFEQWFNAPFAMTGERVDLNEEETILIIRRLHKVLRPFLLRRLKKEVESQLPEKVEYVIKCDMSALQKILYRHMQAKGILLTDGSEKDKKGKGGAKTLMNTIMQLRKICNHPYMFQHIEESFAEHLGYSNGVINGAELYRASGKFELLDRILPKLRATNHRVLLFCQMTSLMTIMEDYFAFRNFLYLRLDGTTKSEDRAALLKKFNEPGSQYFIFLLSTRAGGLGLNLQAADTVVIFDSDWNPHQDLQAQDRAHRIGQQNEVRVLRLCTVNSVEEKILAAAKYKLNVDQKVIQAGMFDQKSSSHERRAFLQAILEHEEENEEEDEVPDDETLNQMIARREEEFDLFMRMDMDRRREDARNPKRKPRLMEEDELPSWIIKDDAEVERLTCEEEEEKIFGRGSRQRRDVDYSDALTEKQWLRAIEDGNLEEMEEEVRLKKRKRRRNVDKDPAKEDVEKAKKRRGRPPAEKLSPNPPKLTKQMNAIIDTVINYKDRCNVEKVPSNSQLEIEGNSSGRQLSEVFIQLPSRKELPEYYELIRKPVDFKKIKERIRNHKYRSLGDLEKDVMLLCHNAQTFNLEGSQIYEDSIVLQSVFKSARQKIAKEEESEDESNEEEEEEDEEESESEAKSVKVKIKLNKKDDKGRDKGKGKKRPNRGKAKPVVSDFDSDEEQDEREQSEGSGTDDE
Compound,DC50 [1] [µM],DC50 [2] [µM],further results
"Cc1ncsc1-c1ccc([C@H](C)NC(=O)[C@@H]2C[C@@H](O)CN2C(=O)[C@@H](c2cc(OCC[C@H]3CCN(C[C@H]4C[C@H](Oc5cc(N6C7CCC6CN(c6cc(-c8ccccc8O)nnc6N)C7)ccn5)C4)[C@H](C)C3)no2)C(C)C)cc1 [compound 535, (2S,4R)-1-((2R)-2-(3-(2-((2R,4S)-1-(((1r,3R)-3-((4-(3-(3-amino-6-(2-hydroxyphenyl)pyridazin-4-yl)-3,8-diazabicyclo[3.2.1]octan-8-yl)pyridin-2-yl)oxy)cyclobutyl)methyl)-2-methylpiperidin-4-yl)ethoxy)isoxazol-5-yl)-3-methylbutanoyl)-4-hydroxy-N-((S)-1-(4-(4-methylthiazol-5-yl)phenyl)ethyl)pyrrolidine-2-carboxamide]",–,–,"DC50 (BRM degradation, read-out: BRM DC50): < 0.0025 µM; Dmax (SW1573, % degraded, when tested at the top concentration of between 0.3 and 10 μM, read-out: BRM Dmax (%)): > 75%"
"Cc1ncsc1-c1ccc([C@H](C)NC(=O)[C@@H]2C[C@@H](O)CN2C(=O)[C@H](c2cc(OCCN3CCC(O[C@H]4C[C@H](Oc5cc(N6C7CCC6CN(c6cc(-c8ccccc8)nnc6N)C7)ccn5)C4)CC3)no2)C(C)C)cc1 [compound 536, (2S,4R)-1-((2S)-2-(3-(2-(4-((1r,3S)-3-((4-(3-(3-amino-6-phenylpyridazin-4-yl)-3,8-diazabicyclo[3.2.1]octan-8-yl)pyridin-2-yl)oxy)cyclobutoxy)piperidin-1-yl)ethoxy)isoxazol-5-yl)-3-methylbutanoyl)-4-hydroxy-N-((S)-1-(4-(4-methylthiazol-5-yl)phenyl)ethyl)pyrrolidine-2-carboxamide]",> 0.03,–,–
"Cc1ncsc1-c1ccc([C@H](C)NC(=O)[C@@H]2C[C@@H](O)CN2C(=O)[C@@H](c2cc(OCCN3CCC(O[C@H]4C[C@H](Oc5cc(N6C7CCC6CN(c6cc(-c8ccccc8)nnc6N)C7)ccn5)C4)CC3)no2)C(C)C)cc1 [compound 537, (2S,4R)-1-((2R)-2-(3-(2-(4-((1r,3R)-3-((4-(3-(3-amino-6-phenylpyridazin-4-yl)-3,8-diazabicyclo[3.2.1]octan-8-yl)pyridin-2-yl)oxy)cyclobutoxy)piperidin-1-yl)ethoxy)isoxazol-5-yl)-3-methylbutanoyl)-4-hydroxy-N-((S)-1-(4-(4-methylthiazol-5-yl)phenyl)ethyl)pyrrolidine-2-carboxamide]",> 0.03,–,–
"Cc1cc([C@H](C(=O)N2C[C@H](O)C[C@H]2C(=O)N[C@@H](C)c2ccc(-c3scnc3C)cc2)[C@H](C)COCCn2cc(-c3cc(-c4ccccc4O)nnc3N)cn2)on1 [compound 538, (2S,4R)-1-((2R,3S)-4-(2-(4-(3-amino-6-(2-hydroxyphenyl)pyridazin-4-yl)-1H-pyrazol-1-yl)ethoxy)-3-methyl-2-(3-methylisoxazol-5-yl)butanoyl)-4-hydroxy-N-((S)-1-(4-(4-methylthiazol-5-yl)phenyl)ethyl)pyrrolidine-2-carboxamide]",–,> 0.03,–
"Cc1ncsc1-c1cc(F)c([C@H](C)NC(=O)[C@@H]2C[C@@H](O)CN2C(=O)[C@@H](c2cc(OCCN3CCC(O[C@H]4C[C@H](Oc5cc(N6C7CCC6CN(c6cc(-c8ccccc8O)nnc6N)C7)ccn5)C4)CC3)no2)C(C)C)cn1 [compound 539, (2S,4R)-1-((2R)-2-(3-(2-(4-((1r,3R)-3-((4-(3-(3-amino-6-(2-hydroxyphenyl)pyridazin-4-yl)-3,8-diazabicyclo[3.2.1]octan-8-yl)pyridin-2-yl)oxy)cyclobutoxy)piperidin-1-yl)ethoxy)isoxazol-5-yl)-3-methylbutanoyl)-N-((S)-1-(4-fluoro-6-(4-methylthiazol-5-yl)pyridin-3-yl)ethyl)-4-hydroxypyrrolidine-2-carboxamide]",–,< 0.0025,"Dmax (BRM degradation, SW1573 cells, Table 2D, read-out: **Dmax (%) (% degraded)): > 75%"
